This note sets out measurements from US11078188B2, “Dihydroquinoxaline bromodomain recognition protein inhibitor, preparation method and use thereof” (SHANGHAI INSTITUTE OF MATERIA MEDICA, CHINESE ACADEMY OF …, priority 2017, dated 2021).

The target in one series is BRD4 (I) (Homo sapiens (Human), UniProt O60885). As to the kind of experiment: Fluorescence anisotropy (FA) binding test on BRD4 (I). The settings on record: BRD4 (I) 10 nM, fluorescent (+)-JQ1 substrate 5 nM, read-out: BRD4 (1) IC50. The protocol: The binding activity of the compound to BRD4 (I) was tested using a fluorescence anisotropy (FA) method. The principle of FA test is to calculate and analyze the fluorescence polarization values in the horizontal and vertical directions by detecting the change of molecular weight before and after the interaction of fluorescein-labeled small molecules with other molecules. If the equilibrium of the binding between the fluorescently labeled small molecule and macromolecule is established, it will move slowly when excited, and the measured fluorescence polarization value will increase. If the binding between the fluorescently labeled small molecule and the macromolecule is replaced by another ligand, its rotation or flipping speed in the free state will be faster, and the emitted light will be depolarized relative to the plane of the excitation light, and the measured polarized light value will decrease to calculate the fluorescence anisotropy of the sample.
Expression and purification of the BRD4(I) recognition domain: colonies of newly transformed plasmid DNA from E. coli BL21(DE3)-condon plus-RIL cells were cultivated in 50 mL of Terrific Broth medium containing 50 μg/mL kanamycin and 34 μg/mL chloramphenicol at 37° C. overnight (starting culture). The starting culture was then diluted 100-fold in 1 L of fresh TB medium and the cells were grown at 37° C. to an optical density of about 0.8 at OD600 and then the temperature was lowered to 16° C. When the system was equilibrated at 16° C., the optical density at OD600 was approximately 1.2, and protein expression was induced with 0.2 mmol of isopropyl-β-D-thiogalactopyranoside (IPTG) overnight at 16° C. Bacteria were harvested by centrifugation (4000×g, 20 minutes, 4° C.) and stored as a pellet at −80° C. The cells expressing His 6-tagged protein was resuspend in lysis buffer [50 mmol 4-hydroxyethylpiperazineethanesulfonic acid (HEPES), 25° C., pH 7.5, 500 mmol NaCl, 10 mmol imidazole, 5% glycerol and freshly added 0.5 mmol of tris(2-carboxyethyl)phosphine hydrochloride (TCEP) and 1 mmol of phenylmethanesulfonyl fluoride (PMSF)] and lysed at 4° C. using JN 3000PLUS high pressure homogenizer (JNBIO-Guangzhou, China). The lysate was clarified by centrifugation (12,000×g for 1 hour at 4° C.) and applied to a nickel-nitriloacetate agarose column. The column was washed once with 50 mL of wash buffer containing 30 mmol of imidazole. The protein was eluted using imidazole in an elution buffer in a stepwise elution (100-250 mmol imidazole in 50 mmol HEPES, 25° C., pH 7.5, 500 mmol NaCl, 5% glycerol). All fractions were collected and monitored by SDS-polyacrylamide gel electrophoresis (Bio-Rad Criterion TM Precast Gels, 4-12% Bis-Tris, 1.0 mm, from Bio-Rad, CA). After 1 mmol of dithiothreitol (DTT) was added, the eluted proteins were treated with tobacco […] virus (TEV) protease overnight at 4° C. to remove the His6 tag. The protein was concentrated and further purified by size exclusion chromatography on a Superdex 75 16/60 HiLoad gel filtration column. The samples were monitored by SDS-polyacrylamide gel electrophoresis and concentrated to 8-10 mg/mL with gel filtration buffer, 10 mmol Hepes pH 7.5, 500 mM NaCl, 1 mmol DTT, and used for protein binding assays and crystallization.
The fluorogenic substrate was (+)-JQ1 linked to a fluorescent molecule and the working concentration was 5 nM. BRD4 (I) protein had 10 nM of working concentration and the total reaction system was 40 μL. The buffer was 50 mM 4-hydroxyethylpiperazineethanesulfonic acid (HEPES) pH 7.4, 150 mM NaCl, 0.5 mM 3[(3-cholamidopropyl)dimethylammonio]propanesulfonate (CHAPS). […] The final concentration of DMSO was chosen to be 0.2%, taking into account the solubility of the compound and the effect of DMSO on the assay. All measurements were made under these conditions. […]

The nature of series [1]: Metabolic stability in human liver microsomes. The class given is in vitro ADME. The settings on record: human liver microsomes 0.5 mg/ml, 1 μM compound, NADPH. The protocol: The system which was 150 μl of human liver microsomes (final concentration: 0.5 mg/ml) was used for metabolic stability incubation. The system contained reduced coenzyme II (NADPH) (final concentration: 1 mM) and 1 μM compound, positive control or negative control. The reaction was terminated with acetonitrile containing (imiprozine, batch number: 3221; tinidazole, given) at 0 min, 5 min, 10 min, and 30 min, respectively. The mixture was vortexed for 10 min, centrifuged at 15000 rpm for 10 min, and 50 μl of the supernatant was injected into a 96-well plate. The metabolic stability of the compound was calculated by measuring the relative reduction in the original medicament.
(§1) HLM Clint (μl/min/mg) refers to the clearance rate of compounds in human liver microsomes having a unit of μl/min/mg; mLM Clint (μl/min/mg) refers to the clearance rate of compounds in mouse liver microsomes having a unit of μl/min/mg; HLM t1/2 (min) refers to the half-life of the compound in human liver microsomes having a unit of minutes; mLM t1/2 (min) refers to the half-life of the compound in mouse liver microsomes having a unit of minutes. TDI means that the mechanism inhibition test of compounds on CYP enzyme evaluates whether the compound has time-dependent inhibition of the enzyme.

For a further series, the target named is CYP2C19 (Homo sapiens (Human), UniProt P33261). As to the kind of experiment: Direct inhibition test (DI test), CYP 2C19. The settings on record: human liver microsomes 0.2 mg/ml, read-out: Direct inhibition rate (%) 2C19. The class given is in vitro ADME. The protocol:
(§2) The system which was 100 μl of human liver microsomes (final concentration: 0.2 mg/ml) was used for direct inhibition incubation. The system contained NADPH (final concentration: 1 mM), 10 μl compound, positive inhibitor cocktail (ketoconazole, 10 μl, quinidine 10 μl, sulfaphenazole 100 μl, naphthoflavone 10 μl, tranylcypromine 1000 μl), negative control 10 μl DMSO and mixed probe substrate (midazolam 10 μl, testosterone 100 μl, dextromethorphan 10 μl, diclofenac 20 μl, phenacetin 100 μl, mephenytoin 100 μl). The reaction was stopped after the system was incubated for 20 min. The relative activity of the enzyme was calculated by measuring the relative amount of production of the metabolite.

The nature of series [2]: Metabolic stability in mouse liver microsomes. The class given is in vitro ADME.
For a further series, the target named is CYP3A4 (Homo sapiens (Human), UniProt P08684). As to the kind of experiment: Direct inhibition test (DI test), CYP 3A4. The class given is in vitro ADME. The settings on record: human liver microsomes 0.2 mg/ml, first of two values a/b (two 3A4 probes midazolam, testosterone; assignment not given), read-out: Direct inhibition rate (%) 3A4, first value. The protocol:
as §2

The target of a further series is 3A4 (Homo sapiens (Human), UniProt P08684). Description: Direct inhibition test (DI test), CYP 3A4. The class given is in vitro ADME. The settings on record: human liver microsomes 0.2 mg/ml, 20 min; second of two values a/b (two 3A4 probes midazolam, testosterone; assignment not given). The protocol:
as §2

Another series has as its target 2D6 (Homo sapiens (Human), UniProt P10635). Description: Direct inhibition test (DI test), CYP 2D6. The class given is in vitro ADME. As to conditions: human liver microsomes 0.2 mg/ml, 20 min. The protocol:
as §2

Another series concerns the target 2C9 (Homo sapiens (Human), UniProt P11712). As to the kind of experiment: Direct inhibition test (DI test), CYP 2C9. The settings on record: human liver microsomes 0.2 mg/ml, 20 min. The class given is in vitro ADME. The protocol:
as §2

For a further series, the system named is CYP enzyme. Description: Mechanistic inhibition test (TDI test). The class given is in vitro ADME. The settings on record: human liver microsomes 0.2 mg/ml; mechanism inhibition if kobs greater than 200. The protocol:
The system which was 200 μl of human liver microsomes (final concentration: 0.2 mg/ml) was used for mechanistic inhibition incubation. The system contained 10 μl compound, mixed positive inhibitor (Troleandomycin 10 μl, Paroxetine 10 μl, Tienilic acid 10 μM, Furafylline 10 μl) or 10 μl negative control PRO. After NADPH (final concentration: 1 mM) or PBS was added, the system was incubated for 0 min, 5 min, 10 min and 30 min, then NADPH (final concentration: 1 mM) and mixed probe substrate (Midazolam 5 μM, Testosterone 50 μl, Dextromethophan 5 μM, Diclofenac 10 μl, Phenacetin 5 0 μM, S-(+)-mephenytoin 50 μl) were added and incubated for 10 min. Then the reaction was stopped. The test for positive inhibitor CYP2C19 was carried out alone, the inhibitor S-(+)-fluoxetine was 100 μM. The enzyme activity was calculated by measuring the relative production amount of metabolite. kobs was calculated.
as §1

SMILES strings stand for the structures.

Chain of CYP2C19 (P33261 whole entry): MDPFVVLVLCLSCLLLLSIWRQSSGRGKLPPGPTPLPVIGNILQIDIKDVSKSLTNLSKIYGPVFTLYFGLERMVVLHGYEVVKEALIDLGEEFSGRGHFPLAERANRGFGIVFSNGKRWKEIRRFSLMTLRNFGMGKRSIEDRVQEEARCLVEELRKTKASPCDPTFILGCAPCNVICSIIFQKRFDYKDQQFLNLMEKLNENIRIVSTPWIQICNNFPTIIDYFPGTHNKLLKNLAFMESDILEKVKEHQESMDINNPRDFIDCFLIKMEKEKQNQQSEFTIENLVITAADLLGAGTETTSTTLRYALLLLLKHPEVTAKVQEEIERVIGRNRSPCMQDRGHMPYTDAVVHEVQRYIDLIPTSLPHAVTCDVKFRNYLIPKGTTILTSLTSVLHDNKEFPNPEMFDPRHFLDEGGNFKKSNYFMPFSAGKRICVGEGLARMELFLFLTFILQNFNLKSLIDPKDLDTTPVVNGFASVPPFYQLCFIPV
Chain of 2D6 (P10635 whole entry): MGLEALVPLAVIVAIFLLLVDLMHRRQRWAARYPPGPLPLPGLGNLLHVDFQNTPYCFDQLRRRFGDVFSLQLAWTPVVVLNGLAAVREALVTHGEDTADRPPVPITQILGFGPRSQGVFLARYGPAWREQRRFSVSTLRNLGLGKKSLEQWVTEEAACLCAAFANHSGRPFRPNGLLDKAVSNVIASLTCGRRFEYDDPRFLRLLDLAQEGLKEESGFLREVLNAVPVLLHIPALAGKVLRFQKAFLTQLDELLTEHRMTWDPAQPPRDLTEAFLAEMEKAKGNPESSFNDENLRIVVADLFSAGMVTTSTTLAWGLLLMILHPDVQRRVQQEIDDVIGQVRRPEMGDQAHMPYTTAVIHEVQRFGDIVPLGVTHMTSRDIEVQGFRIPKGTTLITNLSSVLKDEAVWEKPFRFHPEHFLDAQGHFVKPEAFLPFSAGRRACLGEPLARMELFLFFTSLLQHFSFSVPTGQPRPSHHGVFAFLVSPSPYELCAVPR
Chain of 2C9 (P11712 whole entry): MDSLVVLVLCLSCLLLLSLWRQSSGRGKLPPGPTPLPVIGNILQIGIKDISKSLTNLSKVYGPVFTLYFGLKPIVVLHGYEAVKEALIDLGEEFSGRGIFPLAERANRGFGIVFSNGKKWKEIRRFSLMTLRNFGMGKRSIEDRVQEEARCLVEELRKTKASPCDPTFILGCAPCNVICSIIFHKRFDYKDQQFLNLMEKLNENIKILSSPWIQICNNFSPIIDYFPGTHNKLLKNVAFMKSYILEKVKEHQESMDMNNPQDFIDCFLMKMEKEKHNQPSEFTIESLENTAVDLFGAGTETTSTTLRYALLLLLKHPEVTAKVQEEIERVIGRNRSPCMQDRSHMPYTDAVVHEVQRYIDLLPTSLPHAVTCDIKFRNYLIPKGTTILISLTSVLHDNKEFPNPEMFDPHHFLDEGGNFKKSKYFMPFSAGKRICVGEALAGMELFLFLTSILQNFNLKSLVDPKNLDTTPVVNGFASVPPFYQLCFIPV
Chain of CYP3A4 (P08684 whole entry): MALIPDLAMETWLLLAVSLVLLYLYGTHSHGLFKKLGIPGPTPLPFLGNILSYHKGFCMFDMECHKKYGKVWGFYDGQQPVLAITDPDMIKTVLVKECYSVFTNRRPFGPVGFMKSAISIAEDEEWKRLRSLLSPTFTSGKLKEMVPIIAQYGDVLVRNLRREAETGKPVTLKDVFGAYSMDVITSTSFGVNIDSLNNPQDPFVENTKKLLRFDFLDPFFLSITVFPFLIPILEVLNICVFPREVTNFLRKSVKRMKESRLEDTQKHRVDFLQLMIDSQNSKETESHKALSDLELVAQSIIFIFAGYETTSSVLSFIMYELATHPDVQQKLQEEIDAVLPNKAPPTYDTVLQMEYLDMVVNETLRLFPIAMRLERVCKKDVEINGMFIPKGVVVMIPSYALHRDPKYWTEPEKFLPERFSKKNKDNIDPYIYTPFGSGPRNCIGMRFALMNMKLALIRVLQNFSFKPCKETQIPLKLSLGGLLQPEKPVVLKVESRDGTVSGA
Chain of 3A4 (P08684 whole entry): as above

Take `C[C@@H]1C(=O)N(C)c2ccc(-c3nc(C(=O)N4CCCN(C)CC4)nn3-c3ccccc3)cc2N1C1CCCC1` [Example 8]: the IC50 at BRD4 (I) is 9.8 nM. For the same compound, the figures for the microsomal CLint at 1 μM in series [1] (read-out: HLM Clint) and in series [2] (read-out: mLM Clint) were 58 µL/min/mg and 62 µL/min/mg, respectively. The half-life at 1 μM is 23.9 min in [1] (read-out: HLM t1/2) and 22.4 min in [2] (read-out: MLM t1/2). In addition, the inhibition at 20 min was 35% at CYP2C19 and 5% at CYP3A4. Also, the “Direct inhibition rate (%) 3A4, second value” at 3A4 is listed as 6%. Also, the “Direct inhibition rate (%) 2D6” value on 2D6 is given as “no”. Besides, on 2C9, the “Direct inhibition rate (%) 2C9” value is “no”. Also, the TDI entry with CYP enzyme is “no”.
